The target of assay [1] is 5-hydroxytryptamine receptor 2B (Homo sapiens, UniProt P41595). In words: Binding affinity to 5-HT2B receptor (unknown origin) incubated for 1 hr by radioligand binding assay.
For assay [2], the target named is 5-hydroxytryptamine receptor 6 (Homo sapiens, UniProt P50406). Briefly: Displacement of [3H]LSD from human 5-HT6 receptor expressed in HEK293 cells incubated for 1 hr by radioligand binding assay. Type of assay: cell-based. In general terms: Loss of bound radioactivity is the signal in a displacement assay; it reports binding, not function.
5-hydroxytryptamine receptor 6, sequence (P50406 whole entry): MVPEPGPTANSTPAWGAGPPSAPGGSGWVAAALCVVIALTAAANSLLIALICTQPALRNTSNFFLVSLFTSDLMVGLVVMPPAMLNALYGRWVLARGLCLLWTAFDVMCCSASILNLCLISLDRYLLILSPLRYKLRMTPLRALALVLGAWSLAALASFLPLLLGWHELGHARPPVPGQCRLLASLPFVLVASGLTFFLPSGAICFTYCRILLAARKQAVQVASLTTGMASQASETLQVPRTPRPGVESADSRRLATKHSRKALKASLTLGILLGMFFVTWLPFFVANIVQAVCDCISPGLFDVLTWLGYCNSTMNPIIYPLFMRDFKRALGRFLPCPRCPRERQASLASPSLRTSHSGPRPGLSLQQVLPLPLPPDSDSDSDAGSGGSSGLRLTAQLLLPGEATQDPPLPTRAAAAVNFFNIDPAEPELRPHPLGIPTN
Assay [3] addresses T1, Alpha-2A adrenergic receptor (Homo sapiens, UniProt P08913).
T1 sequence (P08913 whole entry): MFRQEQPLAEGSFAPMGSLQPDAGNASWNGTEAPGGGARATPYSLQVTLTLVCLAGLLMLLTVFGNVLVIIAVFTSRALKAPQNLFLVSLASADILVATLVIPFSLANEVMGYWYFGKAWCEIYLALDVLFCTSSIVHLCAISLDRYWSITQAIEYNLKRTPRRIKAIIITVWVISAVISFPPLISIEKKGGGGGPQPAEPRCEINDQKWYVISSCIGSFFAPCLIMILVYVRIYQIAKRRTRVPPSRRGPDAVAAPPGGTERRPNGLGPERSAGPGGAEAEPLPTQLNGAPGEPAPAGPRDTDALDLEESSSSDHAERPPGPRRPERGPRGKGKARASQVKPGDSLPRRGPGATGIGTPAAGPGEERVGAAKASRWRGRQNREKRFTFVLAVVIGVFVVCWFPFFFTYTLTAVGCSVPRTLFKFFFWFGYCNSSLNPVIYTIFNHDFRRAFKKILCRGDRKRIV
In words: Displacement of [3H]RX821002 from alpha-2A adrenergic receptor (unknown origin).

Assay [4] concerns the target T2, 5-hydroxytryptamine receptor 1A (Homo sapiens, UniProt P08908).
T2 sequence (P08908 whole entry): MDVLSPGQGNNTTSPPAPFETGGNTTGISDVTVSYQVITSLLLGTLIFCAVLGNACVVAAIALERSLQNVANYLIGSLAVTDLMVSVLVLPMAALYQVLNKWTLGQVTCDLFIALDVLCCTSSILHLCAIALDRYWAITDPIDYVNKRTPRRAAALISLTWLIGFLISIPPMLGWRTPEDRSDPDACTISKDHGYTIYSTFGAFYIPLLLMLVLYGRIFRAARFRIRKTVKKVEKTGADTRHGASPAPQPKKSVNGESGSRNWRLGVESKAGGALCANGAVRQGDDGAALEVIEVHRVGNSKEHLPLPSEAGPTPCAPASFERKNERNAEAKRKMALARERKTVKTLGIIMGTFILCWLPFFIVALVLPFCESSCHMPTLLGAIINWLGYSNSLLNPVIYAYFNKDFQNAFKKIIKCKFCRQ
Briefly: Displacement of [3H]-8-OH-DPAT from human 5-HT1A receptor expressed in HEK293 cells incubated for 1 hr by radioligand binding assay. It counts as cell-based.

In assay [5] the target is 5-hydroxytryptamine receptor 2A (Homo sapiens, UniProt P28223). In words: Displacement of [3H]ketanserin from human 5-HT2A receptor expressed in CHO-K1 cells incubated for 1 hr by radioligand binding assay. It counts as cell-based.
5-hydroxytryptamine receptor 2A, sequence (P28223 whole entry): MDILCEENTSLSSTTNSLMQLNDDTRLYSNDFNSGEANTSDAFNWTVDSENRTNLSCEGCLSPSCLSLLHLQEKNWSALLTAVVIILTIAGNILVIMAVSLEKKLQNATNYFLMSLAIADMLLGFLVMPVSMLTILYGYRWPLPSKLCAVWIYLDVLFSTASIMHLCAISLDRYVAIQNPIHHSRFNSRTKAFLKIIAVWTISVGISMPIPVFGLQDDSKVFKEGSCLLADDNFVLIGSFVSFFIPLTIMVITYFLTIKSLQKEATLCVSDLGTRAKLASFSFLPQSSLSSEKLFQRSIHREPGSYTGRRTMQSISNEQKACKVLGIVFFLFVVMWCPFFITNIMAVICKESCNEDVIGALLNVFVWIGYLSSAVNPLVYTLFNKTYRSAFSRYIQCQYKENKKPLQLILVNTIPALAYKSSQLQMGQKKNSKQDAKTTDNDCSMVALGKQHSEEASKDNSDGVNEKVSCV
For assay [6], the target named is T3, 5-hydroxytryptamine receptor 2C (Homo sapiens, UniProt P28335).
T3 sequence (P28335 whole entry): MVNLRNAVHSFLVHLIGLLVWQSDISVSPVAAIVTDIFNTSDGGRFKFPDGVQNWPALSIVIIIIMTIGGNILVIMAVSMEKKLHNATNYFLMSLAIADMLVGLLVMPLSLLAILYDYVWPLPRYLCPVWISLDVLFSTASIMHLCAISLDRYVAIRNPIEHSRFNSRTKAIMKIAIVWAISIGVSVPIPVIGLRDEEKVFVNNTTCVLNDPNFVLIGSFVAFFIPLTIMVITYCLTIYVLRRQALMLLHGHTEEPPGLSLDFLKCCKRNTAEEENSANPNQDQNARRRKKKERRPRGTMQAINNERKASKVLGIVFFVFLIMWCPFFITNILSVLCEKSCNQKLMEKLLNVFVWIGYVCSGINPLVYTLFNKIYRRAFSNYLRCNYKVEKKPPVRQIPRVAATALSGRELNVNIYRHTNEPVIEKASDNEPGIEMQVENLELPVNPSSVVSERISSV
In words: Binding affinity to 5-HT2C receptor (unknown origin) incubated for 1 hr by radioligand binding assay.

The target in assay [7] is 5-hydroxytryptamine receptor 7 (Homo sapiens, UniProt P34969). In words: Displacement of [3H]-5-CT from human 5-HT7B receptor expressed in HEK293 cells incubated for 1 hr by radioligand binding assay. Type of assay: cell-based.
5-hydroxytryptamine receptor 7, sequence (P34969 whole entry): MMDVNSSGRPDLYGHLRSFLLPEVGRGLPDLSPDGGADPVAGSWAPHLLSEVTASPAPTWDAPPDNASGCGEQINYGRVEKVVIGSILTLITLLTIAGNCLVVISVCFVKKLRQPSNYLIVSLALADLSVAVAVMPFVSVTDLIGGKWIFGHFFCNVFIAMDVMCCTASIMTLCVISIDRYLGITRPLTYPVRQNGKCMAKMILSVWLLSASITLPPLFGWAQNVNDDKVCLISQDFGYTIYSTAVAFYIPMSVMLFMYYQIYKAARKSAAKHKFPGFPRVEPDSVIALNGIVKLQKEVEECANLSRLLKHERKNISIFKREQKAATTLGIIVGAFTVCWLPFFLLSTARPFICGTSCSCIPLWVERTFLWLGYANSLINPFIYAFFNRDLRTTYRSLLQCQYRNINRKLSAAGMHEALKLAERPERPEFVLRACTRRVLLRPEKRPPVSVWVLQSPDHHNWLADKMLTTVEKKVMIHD
For assay [8], the target named is T4, Alpha-1A adrenergic receptor (Homo sapiens, UniProt P35348).
T4 sequence (P35348 whole entry): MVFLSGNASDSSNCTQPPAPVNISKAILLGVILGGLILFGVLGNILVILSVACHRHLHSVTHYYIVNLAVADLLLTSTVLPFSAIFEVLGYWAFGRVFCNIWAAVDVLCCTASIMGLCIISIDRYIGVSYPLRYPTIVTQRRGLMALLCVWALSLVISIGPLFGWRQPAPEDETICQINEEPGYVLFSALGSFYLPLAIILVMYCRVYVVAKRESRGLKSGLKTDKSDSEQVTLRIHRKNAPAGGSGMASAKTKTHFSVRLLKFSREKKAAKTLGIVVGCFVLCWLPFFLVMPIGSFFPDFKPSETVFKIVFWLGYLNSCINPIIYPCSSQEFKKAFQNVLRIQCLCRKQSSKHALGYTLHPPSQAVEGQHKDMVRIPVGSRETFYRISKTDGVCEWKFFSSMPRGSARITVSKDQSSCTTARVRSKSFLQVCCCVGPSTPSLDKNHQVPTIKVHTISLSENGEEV
Briefly: Displacement of [3H]prazosin from alpha-1A adrenergic receptor (unknown origin).

Structures are written as SMILES.

5-hydroxytryptamine receptor 2B, sequence (P41595 whole entry): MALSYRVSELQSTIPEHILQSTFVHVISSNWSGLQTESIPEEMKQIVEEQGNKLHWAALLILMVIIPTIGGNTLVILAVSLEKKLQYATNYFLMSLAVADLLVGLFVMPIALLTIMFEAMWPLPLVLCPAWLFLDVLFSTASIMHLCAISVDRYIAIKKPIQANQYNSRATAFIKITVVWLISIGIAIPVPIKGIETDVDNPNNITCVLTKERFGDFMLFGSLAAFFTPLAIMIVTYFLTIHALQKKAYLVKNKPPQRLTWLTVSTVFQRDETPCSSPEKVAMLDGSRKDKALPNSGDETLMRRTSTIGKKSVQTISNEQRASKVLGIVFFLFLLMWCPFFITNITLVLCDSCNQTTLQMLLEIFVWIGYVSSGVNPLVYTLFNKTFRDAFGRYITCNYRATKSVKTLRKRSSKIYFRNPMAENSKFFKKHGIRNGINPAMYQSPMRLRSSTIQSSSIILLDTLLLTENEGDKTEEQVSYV

With `C[C@@H]([C@@H](O)c1ccc(O)cc1)N1CCC(Cc2ccccc2)CC1` [(S)-IFENPRODIL], the Ki in assay [1] is over 1000 nM; in assay [2], over 10000 nM; in assay [3], 6100 nM; in assay [4], over 1000 nM; in assay [5], 369 nM; in assay [6], over 10000 nM. For the same compound, the Ki in assay [7] was over 10000 nM; in assay [8] it was 530 nM.
Regarding `C[C@H]([C@H](O)c1ccc(O)cc1)N1CCC(Cc2ccccc2)CC1`, the Ki is 708 nM in assay [1]; over 10000 nM in assay [2]; 5500 nM in assay [3]; over 1000 nM in assay [4]; 338 nM in assay [5]; over 10000 nM in assay [6]. Besides, the Ki is over 10000 nM in assay [7] and 370 nM in assay [8].
As for `C[C@H]([C@@H](O)c1ccc(O)cc1)N1CCC(Cc2ccccc2)CC1` [(S,R)-IFENPRODIL], the Ki is 66 nM in assay [1]; over 1000 nM in assay [2]; 2300 nM in assay [3]; 46 nM in assay [4]; 510 nM in assay [5]; over 10000 nM in assay [6]. Moreover, the Ki in assay [7] is over 10000 nM; in assay [8], 27 nM.
As for `C[C@@H]([C@H](O)c1ccc(O)cc1)N1CCC(Cc2ccccc2)CC1` [(R,S)-IFENPRODIL], the inhibitory constant (Ki) is 95 nM in assay [1]; over 1000 nM in assay [2]; 1600 nM in assay [3]; over 1000 nM in assay [4]; 421 nM in assay [5]; 748 nM in assay [6]. The Ki in assay [7] came to 513 nM; in assay [8] it was 140 nM.

In general, Ki refers to the dissociation constant of the complex between target and ligand, obtained from inhibition or displacement. A low value points to higher affinity.

For the origin of these results see ChEMBL document CHEMBL4706656, “Ifenprodil Stereoisomers: Synthesis, Absolute Configuration, and Correlation with Biological Activity” (J Med Chem, 2021).
